Laboratory results as given in ChEMBL document CHEMBL1154679, “Synthesis and biological evaluation of coumarin-based inhibitors of NAD(P)H: quinone oxidoreductase-1 (NQO1)” (J Med Chem, 2009).

Legend:
MIA PaCa-2 [1] = experiment: Cytotoxicity against human MIAPaCa2 cells assessed as reduction in cell number after 24 hrs by MTT assay; type: functional, cell-based; conditions: MIA PaCa-2, 24 h
MIA PaCa-2 [2] = experiment: Cytotoxicity against human MIAPaCa2 cells assessed as reduction in cell number after 96 hrs by MTT assay; type: functional, cell-based; conditions: MIA PaCa-2, 96 h
HCT-116 [3] = experiment: Cytotoxicity against human HCT116 cells assessed as reduction in cell number after 24 hrs by MTT assay; type: functional, cell-based; conditions: HCT-116, 24 h
HCT-116 [4] = experiment: Cytotoxicity against human HCT116 cells assessed as reduction in cell number after 96 hrs by MTT assay; type: functional, cell-based; conditions: HCT-116, 96 h
[5] = molecular target: T1, NAD(P)H dehydrogenase [quinone] 1 (Homo sapiens, UniProt P15559)
T1 sequence (P15559 whole entry): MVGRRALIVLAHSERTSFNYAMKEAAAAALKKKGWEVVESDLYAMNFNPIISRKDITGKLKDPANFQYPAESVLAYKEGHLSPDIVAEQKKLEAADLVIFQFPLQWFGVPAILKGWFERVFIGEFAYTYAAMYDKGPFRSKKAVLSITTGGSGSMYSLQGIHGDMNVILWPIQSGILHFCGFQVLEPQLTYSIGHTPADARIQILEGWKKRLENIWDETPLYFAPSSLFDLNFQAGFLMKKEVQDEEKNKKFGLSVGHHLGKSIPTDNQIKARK
Description: Inhibition of human recombinant NQO1

[6] = molecular target: T1, NAD(P)H dehydrogenase [quinone] 1; remark: listed apart in the source
Description: Inhibition of human recombinant NQO1 in presence of BSA

Cc1cc2oc(=O)c(Cc3ccccc3)c(O)c2cc1C
IC50 (MIA PaCa-2 [1]): > 400 µM | IC50 (MIA PaCa-2 [2]): 267 µM | IC50 (HCT-116 [3]): > 400 µM | IC50 (HCT-116 [4]): 178 µM

Cc1ccc2c(O)c(Cc3c(O)c4ccc(C)c(C)c4oc3=O)c(=O)oc2c1C
IC50 (MIA PaCa-2 [1]): 359 µM | IC50 (MIA PaCa-2 [2]): 119 µM | IC50 (HCT-116 [3]): 178 µM | IC50 (HCT-116 [4]): 35 µM

O=c1oc2ccccc2c(O)c1Cc1c(O)c2ccccc2oc1=O [DICUMAROL]
IC50 (MIA PaCa-2 [1]): 90 µM | IC50 (MIA PaCa-2 [2]): 52 µM | IC50 (HCT-116 [3]): 103 µM | IC50 (HCT-116 [4]): 19 µM

O=c1oc2ccccc2c(O)c1Cc1ccccc1
IC50 [5]: 0.144 µM | IC50 [6]: 3.2 µM

COc1cc2oc(=O)c(Cc3c(O)c4cc(OC)c(OC)cc4oc3=O)c(O)c2cc1OC
IC50 (MIA PaCa-2 [1]): > 400 µM | IC50 (MIA PaCa-2 [2]): > 400 µM | IC50 (HCT-116 [3]): > 400 µM | IC50 (HCT-116 [4]): > 400 µM

COc1ccc2c(O)c(Cc3c(O)c4ccc(OC)cc4oc3=O)c(=O)oc2c1
IC50 (MIA PaCa-2 [1]): 448 µM | IC50 (MIA PaCa-2 [2]): 303 µM | IC50 (HCT-116 [3]): > 400 µM | IC50 (HCT-116 [4]): 187 µM

Cc1ccc(Cc2c(O)c3cc(C)c(C)cc3oc2=O)cc1C
IC50 (MIA PaCa-2 [1]): > 400 µM | IC50 (MIA PaCa-2 [2]): 407 µM | IC50 (HCT-116 [3]): > 400 µM | IC50 (HCT-116 [4]): 176 µM

Cc1cc2oc(=O)c(Cc3cccc4ccccc34)c(O)c2cc1C
IC50 (MIA PaCa-2 [1]): > 400 µM | IC50 (MIA PaCa-2 [2]): 188 µM | IC50 (HCT-116 [3]): 160 µM | IC50 (HCT-116 [4]): 56 µM

Cc1ccc2oc(=O)c(Cc3c(O)c4cc(C)ccc4oc3=O)c(O)c2c1
IC50 [5]: 0.014 µM | IC50 [6]: 5.5 µM

O=c1oc2ccc(Cl)cc2c(O)c1Cc1c(O)c2cc(Cl)ccc2oc1=O
IC50 [5]: 0.009 µM | IC50 [6]: 6.25 µM

COc1cccc2oc(=O)c(Cc3c(O)c4c(OC)cccc4oc3=O)c(O)c12
IC50 (MIA PaCa-2 [1]): 390 µM | IC50 (MIA PaCa-2 [2]): 350 µM | IC50 (HCT-116 [3]): > 400 µM | IC50 (HCT-116 [4]): 80 µM

Cc1cc2oc(=O)c(Cc3c(O)c4cc(C)c(C)cc4oc3=O)c(O)c2cc1C
IC50 (MIA PaCa-2 [1]): 213 µM | IC50 (MIA PaCa-2 [2]): 106 µM | IC50 (HCT-116 [3]): 201 µM | IC50 (HCT-116 [4]): 35 µM

CCCC(c1c(O)c2ccccc2oc1=O)c1c(O)c2ccccc2oc1=O
IC50 [5]: 0.588 µM | IC50 [6]: 5.32 µM

Cc1cc2oc(=O)c(Cc3ccc4ccccc4c3)c(O)c2cc1C
IC50 (MIA PaCa-2 [1]): 390 µM | IC50 (MIA PaCa-2 [2]): 162 µM | IC50 (HCT-116 [3]): 208 µM | IC50 (HCT-116 [4]): 180 µM

COc1ccc2oc(=O)c(Cc3c(O)c4cc(OC)ccc4oc3=O)c(O)c2c1
IC50 (MIA PaCa-2 [1]): 300 µM | IC50 (MIA PaCa-2 [2]): 405 µM | IC50 (HCT-116 [3]): 196 µM | IC50 (HCT-116 [4]): 48 µM | IC50 [5]: 0.011 µM | IC50 [6]: 3.3 µM
